Assay results published in ChEMBL document CHEMBL4118093, “Identification of a Hit Series of Antileishmanial Compounds through the Use of Mixture-Based Libraries” (ACS Med Chem Lett, 2017).

Key:
[1] = test system: Leishmania donovani; assay: Antileishmanial activity against Leishmania donovani axenic amastigotes infected in mouse J774 cells measured after 72 hrs by Draq5 staining based high content screening assay; assay type: functional, organism-based; conditions: J774, 72 h
[2] = test system: Leishmania donovani; assay: Antileishmanial activity against Leishmania donovani axenic amastigotes at 5 uM after 72 hrs by Celltiter reagent based assay relative to control; assay type: functional
[3] = test system: Leishmania donovani; assay: Antileishmanial activity against Leishmania donovani axenic amastigotes at 2.5 uM after 72 hrs by Celltiter reagent based assay relative to control; assay type: functional
[4] = Selectivity index, ratio of IC50 for mouse J774 cells to IC50 for Leishmania donovani axenic amastigotes infected in mouse J774 cells; assay type: toxicity, cell-based; conditions: read-out: Ratio IC50
[5] = test system: J774; assay: Cytotoxicity against mouse J774 cells

SMILES	IC50 [1]	inhibition at 5 µM [2]	inhibition at 2.5 µM [3]	selectivity ratio [4]	IC50 [5]
N=C1NC[C@H](CCCCN2C[C@@H](Cc3ccc4ccccc4c3)N(CCc3ccc(-c4ccccc4)cc3)C2=N)N1CCC12CC3CC(CC(C3)C1)C2	1.7 µM	0%	0%	25	41 µM
N=C1NC[C@H](CCCCN2C[C@@H](Cc3ccc4ccccc4c3)N(CCCCC3CCCCC3)C2=N)N1CCc1cccc(C(F)(F)F)c1	1.8 µM	75%	6%	28	50 µM
CCCC[C@H]1CN(CCCC[C@H]2CNC(=N)N2CCCCC2CCCCC2)C(=N)N1CCc1ccc(-c2ccccc2)cc1	5 µM	98%	78%	2	12 µM
CCCC[C@H]1CN(CCCC[C@H]2CNC(=N)N2CCCCC2CCCCC2)C(=N)N1CCCCC1CCCCC1	> 5 µM	99%	71%	< 3	15 µM
N=C1NC[C@H](CCCCN2C[C@H](CC3CCCCC3)N(CCCCC3CCCCC3)C2=N)N1CCc1cccc(C(F)(F)F)c1	1.3 µM	94%	0%	14	26 µM
N=C1NC[C@H](CCCCN2C[C@H](CC3CCCCC3)N(CCc3ccc(-c4ccccc4)cc3)C2=N)N1CCc1cccc(C(F)(F)F)c1	> 5 µM	97%	35%	< 9	46 µM

Second part, led by results:

IC50 [1]	SMILES	inhibition at 5 µM [2]	inhibition at 2.5 µM [3]	selectivity ratio [4]	IC50 [5]
0.6 µM	CCCCCCCN1C(=N)N(CCCC[C@H]2CNC(=N)N2CCc2cccc(C(F)(F)F)c2)C[C@@H]1CCCC	26%	9%	81	48 µM
3.5 µM	CCCCCCCN1C(=N)N(CCCC[C@H]2CNC(=N)N2CCc2cccc(C(F)(F)F)c2)C[C@H]1Cc1ccc2ccccc2c1	100%	37%	14	50 µM
5 µM	CCCC[C@H]1CN(CCCC[C@H]2CNC(=N)N2CCc2cccc(C(F)(F)F)c2)C(=N)N1CCCCC1CCCCC1	43%	0%	10	50 µM
